# Assay results published in PMC11992225, “Antibacterial compounds against non-growing and intracellular bacteria” (npj Antimicrobials and Resistance, 2025).
# Read-outs that look alike come from different tables or passages of the source.
# Experiments:
# S. aureus DSM2569 = experiment: MIC, standard microdilution assay, growing S. aureus; assay type: cell-based, Staphylococcus aureus; settings: Staphylococcus aureus
# How it was run: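 Each strain was exposed to serially diluted compound in broth, in triplicate. The media were TSB for Shigella; CA-MHB at pH 7.4 (HEPES 40 mM) for S. aureus, P. aeruginosa and UPEC; and, for UPEC only, low-pH LPM (pH 5.5, 30 mM MES).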
# non-growing UPEC CFT073 = experiment: Dilution-regrowth assay (screen, hit validation, dose-response) on stationary-phase UPEC; assay type: cell-based, Escherichia coli; settings: for EC50: Escherichia coli
# How it was run: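 Regrowth (OD600 after 6 h, 37 °C) of diluted non-growing CFT073, following 24 h compound treatment of 24 h stationary cultures, defines activity relative to untreated control. Screen at 20 µM, validation at 20, 10, 5 µM (duplicates), dose–response in three biological replicates fitted by five-parameter logistic.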
# [1] = tested on: non-growing P. aeruginosa DSM1117; experiment: Dose-dependent killing analysis (CFU spot-plating) of stationary-phase P. aeruginosa; assay type: cell-based, Pseudomonas aeruginosa; settings: for killing, average Δlog10(CFU/ml): P. aeruginosa
# How it was run: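 Viability by CFU: samples serially diluted 10-fold in PBS, spotted on LB agar, grown overnight at 37 °C, and colonies counted at the lowest resolvable dilution. Non-growing P. aeruginosa DSM1117 had been dosed for 24 h in 1:4 CA-MHB (pH 7.4); three biological replicates.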
# [2] = tested on: non-growing S. aureus DSM2569; experiment: Dose-dependent killing analysis (CFU spot-plating) of stationary-phase S. aureus;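 as to average Δlog10(CFU/ml) (killing): drug concentration in µM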; assay type: cell-based, Staphylococcus aureus; settings: for average Δlog10(CFU/ml) (killing): S. aureus, vs 9,097 before treatment
# How it was run: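 Survival was scored as CFU after overnight growth at 37 °C on LB agar, using spots from 10-fold PBS dilutions of treated cultures. Non-growing S. aureus DSM2569 had been exposed to compound for 24 h in 1:4 CA-MHB, pH 7.4. Three biological replicates were run.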
compound,measurement,setting,value
CO[C@@]12[C@H](COC(N)=O)C3=C(C(=O)C(C)=C(N)C3=O)N1C[C@@H]1N[C@@H]12 [Mitomycin C],MIC,"S. aureus DSM2569; DSM2569, pH 7.4, read-out: MIC (μM) CA-MHB",0.25 µM
same,"Regrowth, OD600 at 6h or 8h after dilution into drug-free medium (average)","non-growing UPEC CFT073; E. coli in 1:4 CA-MHB (pH 7.4), drug concentration 0.25",0.575
same,"Regrowth, OD600 at 6h or 8h after dilution into drug-free medium (average)","non-growing UPEC CFT073; E. coli in 1:4 CA-MHB (pH 7.4), drug concentration 0.5",0.556
same,"Regrowth, OD600 at 6h or 8h after dilution into drug-free medium (average)","non-growing UPEC CFT073; E. coli in 1:4 CA-MHB (pH 7.4), drug concentration 1",0.551
same,"Regrowth, OD600 at 6h or 8h after dilution into drug-free medium (average)","non-growing UPEC CFT073; E. coli in 1:4 CA-MHB (pH 7.4), drug concentration 2.5",0.482
same,"Regrowth, OD600 at 6h or 8h after dilution into drug-free medium (average)","non-growing UPEC CFT073; E. coli in 1:4 CA-MHB (pH 7.4), drug concentration 5",0.179
same,"Regrowth, OD600 at 6h or 8h after dilution into drug-free medium (average)","non-growing UPEC CFT073; E. coli in 1:4 CA-MHB (pH 7.4), drug concentration 10",0.065
same,"Regrowth, OD600 at 6h or 8h after dilution into drug-free medium (average)","non-growing UPEC CFT073; E. coli in 1:4 CA-MHB (pH 7.4), drug concentration 30",0.063
same,"Regrowth, OD600 at 6h or 8h after dilution into drug-free medium (average)","non-growing UPEC CFT073; E. coli in LPM (pH 5.5), drug concentration 0.25",0.474
same,"Regrowth, OD600 at 6h or 8h after dilution into drug-free medium (average)","non-growing UPEC CFT073; E. coli in LPM (pH 5.5), drug concentration 0.5",0.440
same,"Regrowth, OD600 at 6h or 8h after dilution into drug-free medium (average)","non-growing UPEC CFT073; E. coli in LPM (pH 5.5), drug concentration 1",0.294
same,"Regrowth, OD600 at 6h or 8h after dilution into drug-free medium (average)","non-growing UPEC CFT073; E. coli in LPM (pH 5.5), drug concentration 2.5",0.140
same,"Regrowth, OD600 at 6h or 8h after dilution into drug-free medium (average)","non-growing UPEC CFT073; E. coli in LPM (pH 5.5), drug concentration 5",0.136
same,"Regrowth, OD600 at 6h or 8h after dilution into drug-free medium (average)","non-growing UPEC CFT073; E. coli in LPM (pH 5.5), drug concentration 10",0.136
same,"Regrowth, OD600 at 6h or 8h after dilution into drug-free medium (average)","non-growing UPEC CFT073; E. coli in LPM (pH 5.5), drug concentration 30",0.134
same,EC50,non-growing UPEC CFT073; pH 5.5,706 nM
same,EC50,"non-growing UPEC CFT073; pH 5.5, read-out: EC50 (regrowth inhibition curve, Fig. S4)",690 nM
same,EC50,non-growing UPEC CFT073; pH 7.4,3680 nM
same,EC50,"non-growing UPEC CFT073; pH 7.4, read-out: EC50 (regrowth inhibition curve, Fig. S4)",3770 nM
same,activity against non-growing UPEC in LPM (pH 5.5) compared to 1:4 CA-MHB (pH 7.4),"non-growing UPEC CFT073; regrowth delay and killing, Figs. 2 and 3",potentiated by the low pH
same,"killing, average Δlog10(CFU/ml)",[1]; drug concentration 0.1,1.020 log10(CFU/ml)
same,"killing, average Δlog10(CFU/ml)",[1]; drug concentration 0.5,2.346 log10(CFU/ml)
same,"killing, average Δlog10(CFU/ml)",[1]; drug concentration 2.5,4.887 log10(CFU/ml)
same,"killing, average Δlog10(CFU/ml)",[1]; drug concentration 10,4.887 log10(CFU/ml)
same,killing of non-growing P. aeruginosa,"[1]; at 2.5 µM, 24 h treatment",> 4 log10
same,reduction of non-growing S. aureus,"[2]; at 10 µM, 24 h treatment",below the limit of detection
NC1CCN(c2c(F)cc3c(=O)c(C(=O)O)cn(C4CC4)c3c2Cl)C1 (stereo not shown) [Clinafloxacin],MIC,"S. aureus DSM2569; DSM2569, S. aureus, CA-MHB pH 7.4, read-out: MIC (μM) CA-MHB",0.125 µM
same,EC50,"non-growing UPEC CFT073; E. coli, pH 7.4, regrowth delay of non-growing bacteria, 1:4 CA-MHB, 24 h treatment, OD600 6 h after 2500-fold dilution, read-out: EC50",906 nM
same,"reduction of bacterial counts, stationary phase P. aeruginosa","[1]; at 0.5 µM, 24 h treatment",more than four
same,"reduction of bacterial counts, non-growing P. aeruginosa","[1]; at 2.5 µM, 1:4 CA-MHB pH 7.4, 24 h treatment",more than four
same,average Δlog10(CFU/ml) (killing),[2]; drug conc 0.1,0.189 log10(CFU/ml)
same,average Δlog10(CFU/ml) (killing),[2]; drug conc 0.5,0.859 log10(CFU/ml)
same,average Δlog10(CFU/ml) (killing),[2]; drug conc 2.5,1.351 log10(CFU/ml)
same,average Δlog10(CFU/ml) (killing),[2]; drug conc 10,1.499 log10(CFU/ml)
